Values after ≈ are worked out from the molar mass of the structure shown. Counter-ions that a name gives are not always drawn. Like-named read-outs stand apart in the source and are kept apart here.
Columns and labels:
Stap. Aureus CMX 553 = test: Second in vitro antibacterial test, MIC (BHIB); format: cell-based; details: Brain Heart Infusion Broth (BHIB)
Ps.Aeruginosa A5007 = test: Second in vitro antibacterial test, MIC (BHIB); format: cell-based; details: Brain Heart Infusion Broth (BHIB)
E.Coli Juhl = test: Second in vitro antibacterial test, MIC (BHIB); format: cell-based; details: Brain Heart Infusion Broth (BHIB)
Strep. pyogenes EES 61 = test: Second in vitro antibacterial test, MIC (BHIB); format: cell-based
[1] = Staphylococcus aureus, read-out: MIC
[2] = Pseudomonas aeruginosa, read-out: MIC
[3] = Escherichia coli, read-out: MIC
[4] = Streptococcus pyogenes, EES61, Brain Heart Infusion Broth (BHIB), read-out: MIC
[5] = Brain Heart Infusion Broth (BHIB)

SMILES	solubility (physchem; pH 7.4)	solubility (physchem; water)	MIC (Stap. Aureus CMX 553; [1])	MIC (Ps.Aeruginosa A5007; [2])	MIC (E.Coli Juhl; [3])	MIC (Strep. pyogenes EES 61; [4])	MIC (Stap. Aureus CMX 553)	MIC (Strep. pyogenes EES 61; [5])	MIC (Ps.Aeruginosa A5007)	MIC (E.Coli Juhl)
CCC[C@H](NC(=O)[C@H](C)N)C(=O)NC1CCN(c2nc3c(cc2F)c(=O)c(C(=O)O)cn3-c2ccc(F)cc2F)C1 (stereo partly drawn) [Example 55b, 7-(3-Ala-Nval-amino-1-pyrrolidinyl)-6-fluoro-1-(2,4-difluorophenyl)-1,4-dihydro-4-oxo-1,8-naphthyridine-3-carboxylic acid]	1030 µg/mL (≈ 1790 µM)	26000 µg/mL (≈ 45300 µM)	–	–	–	–	–	–	–	–
CC(N)C(=O)NC1CCN(c2nc3c(cc2F)c(=O)c(C(=O)O)cn3-c2ccc(F)cc2F)C1 (stereo not drawn) [Example 17]	120 µg/mL (≈ 252 µM)	> 20000 µg/mL	2 µg/mL (≈ 4.21 µM)	16 µg/mL (≈ 33.7 µM)	0.5 µg/mL (≈ 1.05 µM)	–	–	–	–	–
CCCC(N)C(=O)NC1CCN(c2nc3c(cc2F)c(=O)c(C(=O)O)cn3-c2ccc(F)cc2)C1 (stereo not drawn) [Example 26i]	240 µg/mL (≈ 494 µM)	> 9000 µg/mL	1.56 µg/mL (≈ 3.21 µM)	6.2 µg/mL (≈ 12.8 µM)	0.39 µg/mL (≈ 0.803 µM)	1.56 µg/mL (≈ 3.21 µM)	–	–	–	–
CCCC(N)C(=O)NC1CCN(c2cc3c(cc2F)c(=O)c(C(=O)O)cn3-c2ccc(F)cc2F)C1 (stereo not drawn) [Example 26b]	–	–	–	–	–	–	0.39 µg/mL (≈ 0.776 µM)	1.56 µg/mL (≈ 3.1 µM)	6.2 µg/mL (≈ 12.3 µM)	0.78 µg/mL (≈ 1.55 µM)
CSCC[C@H](NC(=O)[C@H](C)N)C(=O)NC1CCN(c2nc3c(cc2F)c(=O)c(C(=O)O)cn3-c2ccc(F)cc2F)C1 (stereo partly drawn) [Example 55n, 7-(3-Ala-Met-amino-1-pyrrolidinyl)-6-fluoro-1-(2,4-difluorophenyl)-1,4-dihydro-4-oxo-1,8-naphthyridine-3-carboxylic acid]	2500 µg/mL (≈ 4120 µM)	20000 µg/mL (≈ 33000 µM)	–	–	–	–	–	–	–	–
CCC[C@H](NC(=O)[C@@H](N)CCC)C(=O)NC1CCN(c2nc3c(cc2F)c(=O)c(C(=O)O)cn3-c2ccc(F)cc2F)C1 (stereo partly drawn) [Example 3b, 7-(3-L-Norvaline-L-Norvalineamino-1-pyrrolidinyl)-1-(2,4-difluorophenyl)-6-fluoro-1,4-dihydro-4-oxo-1,8-naphthyridine-3-carboxylic acid hydrochloride]	680 µg/mL	> 40000 µg/mL	12.5 µg/mL	50 µg/mL	25 µg/mL	12.5 µg/mL	–	–	–	–
CC(C)C(N)C(=O)NC1CCN(c2nc3c(cc2F)c(=O)c(C(=O)O)cn3-c2ccc(F)cc2F)C1 (stereo not drawn) [Example 19]	410 µg/mL (≈ 814 µM)	> 10000 µg/mL	–	–	–	–	–	–	–	–
N[C@@H](Cc1cnc[nH]1)C(=O)NC1CCN(c2nc3c(cc2F)c(=O)c(C(=O)O)cn3-c2ccc(F)cc2F)C1 (stereo partly drawn) [Example 44c, 7-[3-L-Histidine-Amino-1-Pyrrolidinyl)-1-(2,4-Difluorophenyl)-6-Fluoro-1,4-Dihydro-4-oxo-1,8-Naphthyridine-3-Carboxylic Acid Dihydrochloride]	300 µg/mL	> 100000 µg/mL	16 µg/mL	> 64 µg/mL	64 µg/mL	32 µg/mL	–	–	–	–
CC(C)CC(N)C(=O)NC1CCN(c2nc3c(cc2F)c(=O)c(C(=O)O)cn3C2CC2)C1 (stereo not drawn) [Example 26o]	–	–	–	–	–	–	0.39 µg/mL (≈ 0.875 µM)	3.1 µg/mL (≈ 6.96 µM)	1.56 µg/mL (≈ 3.5 µM)	0.2 µg/mL (≈ 0.449 µM)
NC(=O)C[C@H](N)C(=O)NC1CCN(c2nc3c(cc2F)c(=O)c(C(=O)O)cn3-c2ccc(F)cc2F)C1 (stereo partly drawn) [Example 41, 7-(3-L-Asparagine-amino-1-pyrrolidinyl)-1-(2,4-difluorophenyl)-6-fluoro-1,4-dihydro-4-oxo-1,8-naphthyridine-3-carboxylic acid hydrochloride]	400 µg/mL	> 35000 µg/mL	–	–	–	–	–	–	–	–
CC(C)C[C@H](NC(=O)[C@H](C)N)C(=O)NC1CCN(c2nc3c(cc2F)c(=O)c(C(=O)O)cn3-c2ccc(F)cc2F)C1 (stereo partly drawn) [Example 55r, 7-(3-Ala-Leu-amino-1-pyrrolidinyl)-6-fluoro-1-(2,4-difluorophenyl)-1,4-dihydro-4-oxo-1,8-naphthyridine-3-carboxylic acid]	2000 µg/mL (≈ 3400 µM)	26000 µg/mL (≈ 44200 µM)	–	–	–	–	–	–	–	–
Cl.Cl.NCCCC[C@H](N)C(=O)NC1CCN(c2nc3c(cc2F)c(=O)c(C(=O)O)cn3-c2ccc(F)cc2F)C1 (stereo partly drawn) [Example 46, 7-(3-Lys-amino-1-pyrrolidinyl)-1-(2,4-difluorophenyl)-6-fluoro-1,4-dihydro-4-oxo-1,8-naphthyridine-3-carboxylic acid dihydrochloride]	–	–	–	–	–	–	100 µg/mL	100 µg/mL	>100 µg/mL	3.12 µg/mL
CCCC(N)C(=O)NC1CCN(c2cc3c(cc2F)c(=O)c(C(=O)O)cn3-c2ccc(F)cc2)C1 (stereo not drawn) [Example 26h]	–	–	–	–	–	–	0.78 µg/mL (≈ 1.61 µM)	1.56 µg/mL (≈ 3.22 µM)	6.2 µg/mL (≈ 12.8 µM)	0.78 µg/mL (≈ 1.61 µM)
CCC[C@H](NC(=O)CNC(=O)CN)C(=O)NC1CCN(c2nc3c(cc2F)c(=O)c(C(=O)O)cn3-c2ccc(F)cc2F)C1 (stereo partly drawn) [Example 30]	–	–	25 µg/mL (≈ 40.5 µM)	> 100 µg/mL	25 µg/mL (≈ 40.5 µM)	100 µg/mL (≈ 162 µM)	–	–	–	–
NCC(=O)NC1CCN(c2nc3c(cc2F)c(=O)c(C(=O)O)cn3-c2ccc(F)cc2F)C1 (stereo not drawn) [Example 7]	–	–	1.56 µg/mL (≈ 3.38 µM)	12.5 µg/mL (≈ 27.1 µM)	0.78 µg/mL (≈ 1.69 µM)	0.78 µg/mL (≈ 1.69 µM)	–	–	–	–
CCCC(N)C(=O)NC1CCN(c2nc3c(cc2F)c(=O)c(C(=O)O)cn3C2CC2)C1 (stereo not drawn) [Example 26p]	–	–	–	–	–	–	0.39 µg/mL (≈ 0.904 µM)	3.1 µg/mL (≈ 7.18 µM)	1.56 µg/mL (≈ 3.62 µM)	–
CS(=O)(=O)CC[C@H](N)C(=O)NC1CCN(c2nc3c(cc2F)c(=O)c(C(=O)O)cn3-c2ccc(F)cc2F)C1 (stereo partly drawn) [Example 31c, 7-[3-L-Methioninesulfone-Amino-1-Pyrrolidinyl]-1-(2,4-Difluorophenyl)-6-Fluoro-1,4-Dihydro-4-Oxo 1,8-Naphthyridine-3-Carboxylic Acid Hydrochloride]	30 µg/mL	> 35000 µg/mL	25 µg/mL	> 100 µg/mL	12.5 µg/mL	25 µg/mL	–	–	–	–
CCC[C@H](N)C(=O)NC1CCN(c2nc3c(cc2F)c(=O)c(C(=O)O)cn3CC)C1 (stereo partly drawn) [Example 26ff]	–	–	–	–	–	–	1.56 µg/mL (≈ 3.72 µM)	6.2 µg/mL (≈ 14.8 µM)	12.5 µg/mL (≈ 29.8 µM)	1.56 µg/mL (≈ 3.72 µM)
NC(Cc1ccc(O)cc1)C(=O)NC1CCN(c2nc3c(cc2F)c(=O)c(C(=O)O)cn3-c2ccc(F)cc2F)C1 (stereo not drawn) [Example 13]	60 µg/mL (≈ 106 µM)	> 90000 µg/mL	12.5 µg/mL (≈ 22 µM)	50 µg/mL (≈ 88.1 µM)	12.5 µg/mL (≈ 22 µM)	12.5 µg/mL (≈ 22 µM)	–	–	–	–
CSCC[C@H](NC(=O)[C@@H](N)CCSC)C(=O)NC1CCN(c2nc3c(cc2F)c(=O)c(C(=O)O)cn3-c2ccc(F)cc2F)C1 (stereo partly drawn) [Example 55o, 7-(3-Met-Met-amino-1-pyrrolidinyl)-6-fluoro-1-(2,4-difluorophenyl)-1,4-dihydro-4-oxo-1,8-naphthyridine-3-carboxylic acid]	310 µg/mL (≈ 465 µM)	22000 µg/mL (≈ 33000 µM)	–	–	–	–	–	–	–	–
CC(C)CC(N)C(=O)NC1CCN(c2nc3c(cc2F)c(=O)c(C(=O)O)cn3-c2ccc(F)cc2F)C1 (stereo not drawn) [Example 21]	140 µg/mL (≈ 271 µM)	> 35000 µg/mL	1.56 µg/mL (≈ 3.01 µM)	25 µg/mL (≈ 48.3 µM)	1.56 µg/mL (≈ 3.01 µM)	6.2 µg/mL (≈ 12 µM)	–	–	–	–
CSCC[C@H](NC(=O)[C@@H](N)CC(C)C)C(=O)NC1CCN(c2nc3c(cc2F)c(=O)c(C(=O)O)cn3-c2ccc(F)cc2F)C1 (stereo partly drawn) [Example 55p, 7-(3-Leu-Met-amino-1-pyrrolidinyl)-6-fluoro-1-(2,4-difluorophenyl)-1,4-dihydro-4-oxo-1,8-naphthyridine-3-carboxylic acid]	60 µg/mL (≈ 92.5 µM)	23000 µg/mL (≈ 35500 µM)	–	–	–	–	–	–	–	–
O=C(O)c1cn(-c2ccc(F)cc2F)c2nc(N3CCC(NC(=O)C4CCCN4)C3)c(F)cc2c1=O (stereo not drawn) [Example 28]	–	–	1.56 µg/mL (≈ 3.11 µM)	12.5 µg/mL (≈ 24.9 µM)	1.56 µg/mL (≈ 3.11 µM)	1.56 µg/mL (≈ 3.11 µM)	–	–	–	–
Cl.NCC(=O)N[C@@H](Cc1ccccc1)C(=O)NC1CCN(c2cc3c(cc2F)c(=O)c(C(=O)O)cn3-c2ccc(F)cc2F)C1 (stereo partly drawn) [Example 26jj, 1-(2,4-Difluorophenyl)-6-Fluoro-7-(3-Gly-L-Phe -Amino-1-Pyrrolidinyl)-1,4-Dihydro-4-Oxo-Quinoline-3-Carboxylic Acid Hydrochloride]	–	–	–	–	–	–	16 µg/mL	32 µg/mL	64 µg/mL	16 µg/mL
CCC[C@H](NC(=O)CN)C(=O)NC1CCN(c2nc3c(cc2F)c(=O)c(C(=O)O)cn3-c2ccc(F)cc2F)C1 (stereo partly drawn) [Example 52]	80 µg/mL (≈ 143 µM)	6890 µg/mL (≈ 12300 µM)	–	–	–	–	–	–	–	–
CSCCC(N)C(=O)NC1CCN(c2nc3c(cc2F)c(=O)c(C(=O)O)cn3-c2ccc(F)cc2F)C1 (stereo not drawn) [Example 23]	–	–	3.12 µg/mL (≈ 5.83 µM)	5 µg/mL (≈ 9.34 µM)	3.12 µg/mL (≈ 5.83 µM)	3.12 µg/mL (≈ 5.83 µM)	–	–	–	–
NC1CCN(c2nc3c(cc2F)c(=O)c(C(=O)O)cn3-c2ccc(F)cc2)C1 (stereo not drawn) [A, 7-(3-amino-1-pyrrolidinyl)-6-fluoro-1-(4-fluorophenyl)-1,4-dihydro-4-oxo-1,8-naphthyridine-3-carboxylic acid, reference compound]	14 µg/mL (≈ 36.2 µM)	1400 µg/mL (≈ 3620 µM)	–	–	–	–	–	–	–	–
N[C@@H](CC(=O)O)C(=O)NC1CCN(c2nc3c(cc2F)c(=O)c(C(=O)O)cn3-c2ccc(F)cc2F)C1 (stereo partly drawn) [Example 45, 7-(3-L-Asp-amino-1-pyrrolidinyl)-1-(2,4-difluorophenyl)-6-fluoro-1,4-dihydro-4-oxo-1,8-naphthyridine-3-carboxylic acid hydrochloride]	2400 µg/mL	4100 µg/mL	–	–	–	–	–	–	–	–
CC(N)C(=O)NC(Cc1ccccc1)C(=O)NC1CCN(c2nc3c(cc2F)c(=O)c(C(=O)O)cn3-c2ccc(F)cc2F)C1 (stereo not drawn) [Example 11]	590 µg/mL (≈ 948 µM)	> 20000 µg/mL	16 µg/mL (≈ 25.7 µM)	128 µg/mL (≈ 206 µM)	16 µg/mL (≈ 25.7 µM)	–	–	–	–	–
CC(C)C[C@H](NC(=O)[C@@H](N)CC(C)C)C(=O)NC1CCN(c2nc3c(cc2F)c(=O)c(C(=O)O)cn3-c2ccc(F)cc2F)C1 (stereo partly drawn) [Example 55q, 7-(3-Leu-Leu-amino-1-pyrrolidinyl)-6-fluoro-1-(2,4-difluorophenyl)-1,4-dihydro-4-oxo-1,8-naphthyridine-3-carboxylic acid]	190 µg/mL (≈ 301 µM)	19000 µg/mL (≈ 30100 µM)	–	–	–	–	–	–	–	–
